Reference: ChEMBL document CHEMBL1201862, “PubChem BioAssay data set” (2004)
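Growth conditions: 96-well plates. Treatment: test compound, 48 hours, 5 concentrations. Analysis: linear interpolation between bracketing concentrations; unreached endpoints set to highest concentration. GI50 is the concentration that inhibits growth by half.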 Active and inactive are the calls of the source. Rule as the data show it: active = GI50 up to about 1.1 µM and inactive = higher.

Tests used:
Experiment in all cases: NCI tumour cell line growth inhibition, 48 h
SNB-19 = system: SNB-19
HL-60 = system: HL-60
K562 = system: K562
HOP-92 = system: HOP-92
IGROV-1 = system: IGROV-1
SF-268 = system: SF-268
OVCAR-3 = system: OVCAR-3
ACHN = system: ACHN
SF-539 = system: SF-539
SK-MEL-2 = system: SK-MEL-2
Malme-3M = system: Malme-3M
NCI-H522 = system: NCI-H522
NCI-H460 = system: NCI-H460
HCT-116 = system: HCT-116
CAKI-1 = system: CAKI-1
NCI-H226 = system: NCI-H226
SK-MEL-5 = system: SK-MEL-5

Row | Structure (SMILES) | GI50 (SNB-19) | GI50 (HL-60) | GI50 (K562) | GI50 (HOP-92) | GI50 (IGROV-1) | GI50 (SF-268) | GI50 (OVCAR-3) | GI50 (ACHN) | GI50 (SF-539) | GI50 (SK-MEL-2) | GI50 (Malme-3M) | GI50 (NCI-H522) | GI50 (NCI-H460) | GI50 (HCT-116) | GI50 (CAKI-1) | GI50 (NCI-H226) | GI50 (SK-MEL-5)
1 | Cc1cccc2[n+]1[C@H]1[C@H]([C@@H]3O[C@H]1c1ccccc13)[S+]([O-])N2 (some centres not stated) | 37.9 µM (inactive) | 24.4 µM (inactive) | 23 µM (inactive) | 11.9 µM (inactive) | 32.3 µM (inactive) | 41.1 µM (inactive) | 35.9 µM (inactive) | 57.7 µM (inactive) | 77.6 µM (inactive) | 25.2 µM (inactive) | 28.6 µM (inactive) | 34.8 µM (inactive) | 25 µM (inactive) | 30.3 µM (inactive) |  |  | 
2 | N#C/C(=C\c1cc2ccccc2c2ccccc12)c1ccccc1 | 8.99 µM (inactive) | 3.04 µM (inactive) | 3.13 µM (inactive) | > 37.6 µM (inactive) | 11.8 µM (inactive) | 8.17 µM (inactive) | 3.45 µM (inactive) | 14.5 µM (inactive) | 6.15 µM (inactive) | 3.39 µM (inactive) | 4.86 µM (inactive) | 5.83 µM (inactive) | 4.67 µM (inactive) | 5.3 µM (inactive) | 7.76 µM (inactive) | 43.8 µM (inactive) | 5.38 µM (inactive)
3 | O=C(N/N=C(/c1nc2ccc(Cl)cc2[nH]c1=O)C(O)c1ccc(Cl)cc1Cl)c1ccncc1 (configuration not stated) | > 100 µM (inactive) | > 100 µM (inactive) | > 100 µM (inactive) | > 100 µM (inactive) | > 100 µM (inactive) | > 100 µM (inactive) | > 100 µM (inactive) | > 100 µM (inactive) | > 100 µM (inactive) | > 100 µM (inactive) | > 100 µM (inactive) |  | > 100 µM (inactive) | > 100 µM (inactive) | > 100 µM (inactive) | > 100 µM (inactive) | > 100 µM (inactive)
4 | NCCCNCCSSCCCCS(=O)O | > 100 µM (inactive) | 10.4 µM (inactive) | 24.3 µM (inactive) | > 100 µM (inactive) | > 100 µM (inactive) | 18.1 µM (inactive) | 19.9 µM (inactive) | 55.2 µM (inactive) | 80 µM (inactive) |  | 20.3 µM (inactive) | 13.8 µM (inactive) | 65.9 µM (inactive) | 25.7 µM (inactive) | 75.5 µM (inactive) | 57.8 µM (inactive) | 17.2 µM (inactive)
5 | CC(=O)N1C/C(=C\c2ccc(N(C)C)cc2)C(=O)/C(=C/c2ccc(N(C)C)cc2)C1 | 24.8 µM (inactive) | 29.9 µM (inactive) | 60 µM (inactive) | > 100 µM (inactive) | 53.2 µM (inactive) | 66.2 µM (inactive) | 20.4 µM (inactive) | 87.5 µM (inactive) | 27.1 µM (inactive) |  | 75.7 µM (inactive) |  |  | 40.6 µM (inactive) | 41.1 µM (inactive) | 57.9 µM (inactive) | 54.2 µM (inactive)
6 | NC(=S)N/N=C(\C(=O)Nc1cccc([N+](=O)[O-])c1)c1nc2ccc([N+](=O)[O-])cc2nc1O | > 100 µM (inactive) | 19.9 µM (inactive) | 89.5 µM (inactive) | > 100 µM (inactive) | > 100 µM (inactive) | > 100 µM (inactive) |  | 21.4 µM (inactive) | 63.1 µM (inactive) | > 100 µM (inactive) | > 100 µM (inactive) | 3.85 µM (inactive) | 74.6 µM (inactive) | 58.5 µM (inactive) |  | > 100 µM (inactive) | 30.9 µM (inactive)
7 | COc1cc(C2C(C(=O)Nc3ccc([N+](=O)[O-])cc3)=C(C)NC(C)=C2C(=O)Nc2ccc([N+](=O)[O-])cc2)ccc1O | 25.7 µM (inactive) | 0.515 µM (active) | 13.5 µM (inactive) | 16.4 µM (inactive) | 24.9 µM (inactive) | 23.2 µM (inactive) | 22.7 µM (inactive) | 24.3 µM (inactive) | 20.9 µM (inactive) | 15.9 µM (inactive) | 20.8 µM (inactive) | 15.8 µM (inactive) | 23.3 µM (inactive) | 16 µM (inactive) | 31 µM (inactive) | 24.2 µM (inactive) | 31.8 µM (inactive)
8 | CC(=O)C1=C(C)Cn2c(=O)c3ccccc3c(=O)n2C1 | > 100 µM (inactive) | > 100 µM (inactive) | > 100 µM (inactive) | > 100 µM (inactive) | > 100 µM (inactive) | > 100 µM (inactive) | > 100 µM (inactive) | > 100 µM (inactive) | > 100 µM (inactive) | > 100 µM (inactive) | > 100 µM (inactive) | > 100 µM (inactive) | > 100 µM (inactive) | > 100 µM (inactive) | > 100 µM (inactive) | > 100 µM (inactive) | > 100 µM (inactive)
9 | Cc1ns/c(=N\C(=S)N(C)C)n1C | > 100 µM (inactive) | > 100 µM (inactive) | > 100 µM (inactive) | > 100 µM (inactive) | > 100 µM (inactive) | > 100 µM (inactive) |  | > 100 µM (inactive) | > 100 µM (inactive) | > 100 µM (inactive) | > 100 µM (inactive) | > 100 µM (inactive) | > 100 µM (inactive) | > 100 µM (inactive) | > 100 µM (inactive) | > 100 µM (inactive) | > 100 µM (inactive)
10 | COc1ccc(NC(=O)COC(=O)c2cccc3c(=O)c4ccccc4[nH]c23)cc1 | 30.1 µM (inactive) | 13.1 µM (inactive) | 17.2 µM (inactive) | 25.1 µM (inactive) | 27.4 µM (inactive) | 22.3 µM (inactive) | 22.1 µM (inactive) | 21.1 µM (inactive) | 18.1 µM (inactive) |  | 23.4 µM (inactive) | 17.9 µM (inactive) |  | 12.9 µM (inactive) | 19.5 µM (inactive) | 23.1 µM (inactive) | 15.3 µM (inactive)
11 | Cn1ncc2c(c1=O)Nc1ccccc1S2(=O)=O | > 100 µM (inactive) |  | > 100 µM (inactive) | > 100 µM (inactive) | > 100 µM (inactive) | > 100 µM (inactive) | > 100 µM (inactive) | > 100 µM (inactive) | 21.6 µM (inactive) | > 100 µM (inactive) | > 100 µM (inactive) | > 100 µM (inactive) | > 100 µM (inactive) | 50 µM (inactive) | > 100 µM (inactive) | > 100 µM (inactive) | > 100 µM (inactive)
12 | COc1ccc(C2c3cc4c(cc3OC(O)(CO)C2C(=O)O)OCO4)c(OC)c1OC.COc1ccc(C2c3cc4c(cc3OC3(O)COC(=O)C23)OCO4)c(OC)c1OC (configuration not stated) | > 100 µM (inactive) | 45 µM (inactive) | 46.2 µM (inactive) | 29.2 µM (inactive) | > 100 µM (inactive) |  | > 100 µM (inactive) | > 100 µM (inactive) | > 100 µM (inactive) | > 100 µM (inactive) | > 100 µM (inactive) |  | > 100 µM (inactive) | > 100 µM (inactive) | 65.8 µM (inactive) |  | > 100 µM (inactive)
13 | COc1ccc([C@@H]2OC(=O)C3C2C(=O)O[C@H]3c2ccc(OC)c(OC)c2)cc1OC (some centres not stated) | > 100 µM (inactive) | > 100 µM (inactive) | > 100 µM (inactive) | > 100 µM (inactive) | > 100 µM (inactive) | > 100 µM (inactive) | > 100 µM (inactive) | > 100 µM (inactive) | > 100 µM (inactive) | > 100 µM (inactive) | > 100 µM (inactive) | > 100 µM (inactive) | > 100 µM (inactive) | > 100 µM (inactive) |  | > 100 µM (inactive) | > 100 µM (inactive)
14 | CC(Oc1ccc2c(=O)cc(-c3ccccc3)oc2c1)C(=O)O (configuration not stated) | > 100 µM (inactive) | > 100 µM (inactive) | > 100 µM (inactive) | > 100 µM (inactive) | > 100 µM (inactive) | > 100 µM (inactive) | > 100 µM (inactive) | > 100 µM (inactive) | > 100 µM (inactive) |  | > 100 µM (inactive) | > 100 µM (inactive) | > 100 µM (inactive) | > 100 µM (inactive) | > 100 µM (inactive) | > 100 µM (inactive) | > 100 µM (inactive)
15 | COc1ccc(S(=O)(=O)NNS(C)(=O)=O)cc1 | > 100 µM (inactive) | > 100 µM (inactive) | > 100 µM (inactive) |  | > 100 µM (inactive) | > 100 µM (inactive) |  | > 100 µM (inactive) | > 100 µM (inactive) | 60.5 µM (inactive) | > 100 µM (inactive) | > 100 µM (inactive) |  | > 100 µM (inactive) | > 100 µM (inactive) | > 100 µM (inactive) | > 100 µM (inactive)
16 | CC(=O)Nc1ccc(-c2nnc(SCC(=O)Nc3ccc(C)cc3)o2)cc1 |  | 27.8 µM (inactive) | 42.4 µM (inactive) | 18.4 µM (inactive) | 12.9 µM (inactive) | 20.1 µM (inactive) | 22.4 µM (inactive) | 31.6 µM (inactive) | 13.5 µM (inactive) | 14.5 µM (inactive) | 15.7 µM (inactive) | 18.2 µM (inactive) | 23.2 µM (inactive) | 15.7 µM (inactive) | 11.9 µM (inactive) | 27.5 µM (inactive) | 14.7 µM (inactive)
17 | COc1ccc(CC(=O)c2cc(OC)c(OC)cc2C)cc1OC | 68.4 µM (inactive) |  | 57.5 µM (inactive) |  | 14 µM (inactive) | 89.3 µM (inactive) | 77.6 µM (inactive) | 29.4 µM (inactive) |  | > 100 µM (inactive) | > 100 µM (inactive) | 38 µM (inactive) | > 100 µM (inactive) |  | > 100 µM (inactive) |  | 24.9 µM (inactive)
18 | O=C1/C(=C/c2ccc(Cl)cc2)CNC/C1=C\c1ccc(Cl)cc1 | 1.7 µM (inactive) |  |  |  | 2.17 µM (inactive) |  | 1.86 µM (inactive) | 2.07 µM (inactive) | 1.77 µM (inactive) |  | 3.81 µM (inactive) | 2.02 µM (inactive) | 2.11 µM (inactive) | 1.65 µM (inactive) | 2.44 µM (inactive) |  | 6.73 µM (inactive)
